target: PARP1 (Homo sapiens, UniProt P09874); assay: PARP1 biochemical DELFIA assay (auto-PARylation); details: Table 1
Sequence (P09874 whole entry): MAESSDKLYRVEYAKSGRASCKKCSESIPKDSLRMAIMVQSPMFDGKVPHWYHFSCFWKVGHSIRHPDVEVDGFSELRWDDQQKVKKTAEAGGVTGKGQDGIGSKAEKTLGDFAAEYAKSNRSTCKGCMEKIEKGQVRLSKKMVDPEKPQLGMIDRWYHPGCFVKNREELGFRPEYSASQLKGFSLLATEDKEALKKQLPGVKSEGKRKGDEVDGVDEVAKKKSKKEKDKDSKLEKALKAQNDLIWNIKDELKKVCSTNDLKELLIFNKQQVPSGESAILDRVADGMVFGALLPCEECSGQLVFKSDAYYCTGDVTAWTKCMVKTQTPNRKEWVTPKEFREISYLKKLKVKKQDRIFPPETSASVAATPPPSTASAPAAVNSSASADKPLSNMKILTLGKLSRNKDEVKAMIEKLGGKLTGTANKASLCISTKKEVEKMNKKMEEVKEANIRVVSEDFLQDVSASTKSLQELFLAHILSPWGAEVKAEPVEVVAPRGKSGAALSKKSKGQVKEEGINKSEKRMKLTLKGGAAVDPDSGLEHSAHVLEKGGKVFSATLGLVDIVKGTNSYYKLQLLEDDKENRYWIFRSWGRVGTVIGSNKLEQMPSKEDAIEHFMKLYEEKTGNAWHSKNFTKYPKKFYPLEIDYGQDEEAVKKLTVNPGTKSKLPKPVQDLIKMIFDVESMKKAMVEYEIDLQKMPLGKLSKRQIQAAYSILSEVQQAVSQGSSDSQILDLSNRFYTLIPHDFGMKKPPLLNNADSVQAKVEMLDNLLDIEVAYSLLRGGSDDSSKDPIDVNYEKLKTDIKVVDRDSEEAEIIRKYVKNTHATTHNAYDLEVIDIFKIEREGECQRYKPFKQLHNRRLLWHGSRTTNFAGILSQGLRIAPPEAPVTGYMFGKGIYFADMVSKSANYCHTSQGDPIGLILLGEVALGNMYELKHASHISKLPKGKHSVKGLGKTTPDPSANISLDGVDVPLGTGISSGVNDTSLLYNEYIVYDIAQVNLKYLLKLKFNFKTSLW

Compound	IC50
O=C(CN1CCN(c2ncc(C(F)(F)F)cn2)CC1)N1CCCC1c1cc(C(F)(F)F)c(=O)[nH]n1 (single isomer, unassigned) [Compound 32b]	> 10000 nM
O=C(CCN1CCCC(c2cc(C(F)(F)F)c(=O)[nH]n2)C1)N1CCN(c2ncc(C(F)(F)F)s2)CC1 (single isomer, unassigned) [Compound 27a]	10 to 100 nM
O=C(CCN1CCN(c2ncc(C(F)(F)F)cn2)CC1)N1CCCC(c2cc(C(F)(F)F)c(=O)[nH]n2)C1 (single isomer, unassigned) [Compound 9a]	100 to 1000 nM
O=C(CCN1CCCC(c2cc(C(F)(F)F)c(=O)[nH]n2)C1)N1CCN(c2cnc(C(F)(F)F)cn2)CC1 (racemic) [Compound 30rac]	100 to 1000 nM
CNC(=O)c1ccc(N2CCN(C(=O)CCN3CCCC(c4cc(C(F)(F)F)c(=O)[nH]n4)C3)CC2)nc1 (single isomer, unassigned) [Compound 28b]	100 to 1000 nM
O=C(CN1CCCC1c1cc(C(F)(F)F)c(=O)[nH]n1)N1CCN(c2ncc(C(F)(F)F)cn2)CC1 (single isomer, unassigned) [Compound 24a, 6-(1-(2-oxo-2-(4-(5-(trifluoromethyl)pyrimidin-2-yl)piperazin-1-yl)ethyl)pyrrolidin-2-yl)-4-(trifluoromethyl)pyridazin-3(2H)-one]	1000 to 10000 nM
O=C(CCN1CCCC(c2cc(C(F)(F)F)c(=O)[nH]n2)C1)N1CCN(c2ncc(C(F)(F)F)cn2)CC1 (single isomer, unassigned) [Compound 1a, 6-(1-(3-oxo-3-(4-(5-(trifluoromethyl)pyrimidin-2-yl)piperazin-1-yl)propyl)piperidin-3-yl)-4-(trifluoromethyl)pyridazin-3(2H)-one]	100 to 1000 nM
O=C(CCN1CCCC(c2cc(C(F)(F)F)c(=O)[nH]n2)C1)N1CCN(c2ncc(C(F)(F)F)s2)CC1 (single isomer, unassigned) [Compound 27b]	10 to 100 nM

Second part, the compound after the results:

IC50	Compound
100 to 1000 nM	O=C(CN1CCN(c2ncc(C(F)(F)F)cn2)CC1)N1CCCC1c1cc(C(F)(F)F)c(=O)[nH]n1 (single isomer, unassigned) [Compound 32a]
100 to 1000 nM	O=C(CCN1CCCC(c2cc(C(F)(F)F)c(=O)[nH]n2)C1)N1CCN(c2ncc(F)cn2)CC1 (racemic) [Compound 17rac]
100 to 1000 nM	O=C(CCN1CCCC(c2cc(C(F)(F)F)c(=O)[nH]n2)C1)N1CCN(c2ccc(Cl)cn2)CC1 (single isomer, unassigned) [Compound 15b]

same assay, conditions: Table 1A

Compound	IC50
O=C(CN1Cc2ccccc2C1c1cc(C(F)(F)F)c(=O)[nH]n1)N1CC(Oc2ncc(C(F)(F)F)cn2)C1 (single isomer, unassigned) [Compound 114b]	1000 to 10000 nM
O=C(CN1CCN(c2ncc(C(F)(F)F)cn2)CC1)N1CCCC1c1c[nH]c(=O)c(C(F)(F)F)c1 (single isomer, unassigned) [Compound 63a]	10 to 100 nM
O=C(CN1CCCC1c1c[nH]c(=O)c(C(F)(F)F)c1)N1CCN(c2ncc(C(F)(F)F)cn2)CC1 (racemic) [Compound 60rac, 5-(1-(2-oxo-2-(4-(5-(trifluoromethyl)pyrimidin-2-yl)piperazin-1-yl)ethyl)pyrrolidin-2-yl)-3-(trifluoromethyl)pyridin-2(1H)-one]	100 to 1000 nM
N#Cc1cnc(N2CCN(C(=O)CN3CCCC3c3cc(C(F)(F)F)c(=O)[nH]n3)CC2)c(C(F)(F)F)c1 (single isomer, unassigned) [Compound 124b]	1000 to 10000 nM
N#Cc1ccc2nc(N3CCN(C(=O)CN4CCCC4c4cc(C(F)(F)F)c(=O)[nH]n4)CC3)oc2c1 (single isomer, unassigned) [Compound 96b]	≤ 10 nM
CCc1cc(C2CCCN2CC(=O)N2CCN(c3ncc(C(F)(F)F)cn3)CC2)n[nH]c1=O (single isomer, unassigned) [Compound 40b]	1000 to 10000 nM
N#Cc1cc(Cl)cnc1N1CCN(C(=O)CN2CCCC2c2cc(C(F)(F)F)c(=O)[nH]n2)CC1 (single isomer, unassigned) [Compound 144a]	10 to 100 nM
Cn1c(N2CCN(C(=O)CN3CCCC3c3cc(C(F)(F)F)c(=O)[nH]n3)CC2)nc2ccccc21 (single isomer, unassigned) [Compound 97a]	100 to 1000 nM
O=C(CN1CCCC1c1cc(C(F)(F)F)c(=O)[nH]n1)N1CCN(c2ccc(C(F)F)cn2)CC1 (single isomer, unassigned) [Compound 126b]	1000 to 10000 nM
N#Cc1cnc(N2CCN(C(=O)CN3CCCC3c3c[nH]c(=O)c(C(F)(F)F)c3)CC2)nc1 (single isomer, unassigned) [Compound 76b]	100 to 1000 nM
O=C(CN1CCCC1c1n[nH]c(=O)c2ccccc12)N1CCN(c2ncc(C(F)(F)F)cn2)CC1 (single isomer, unassigned) [Compound 38b, 4-(1-(2-oxo-2-(4-(5-(trifluoromethyl)pyrimidin-2-yl)piperazin-1-yl)ethyl)pyrrolidin-2-yl)phthalazin-1(2H)-one]	1000 to 10000 nM
O=C(CN1CCCC1c1cc(C(F)(F)F)c(=O)[nH]n1)N1CCN(c2ccc(C(F)(F)F)cn2)CC1 (single isomer, unassigned) [Compound 42a]	1000 to 10000 nM
CNC(=O)c1ccc(N2CCN(C(=O)CCN3CCC(c4n[nH]c(=O)c5ccccc45)CC3)CC2)cn1 [Compound 48, N-methyl-5-(4-(3-(4-(4-oxo-3,4-dihydrophthalazin-1-yl)piperidin-1-yl)propanoyl)piperazin-1-yl)picolinamide]	≤ 10 nM
O=C(CN1CCC(c2cc(C(F)(F)F)c(=O)[nH]n2)CC1)N1CCN(c2ncc(C(F)(F)F)cn2)CC1 [Compound 62]	100 to 1000 nM
O=C(CN1CCCC1c1cc(C(F)(F)F)c(=O)[nH]n1)N1CCN(c2ncc(F)cn2)CC1 (single isomer, unassigned) [Compound 43a]	10 to 100 nM
O=C(CN1CCCC1c1cc(C(F)(F)F)c(=O)[nH]n1)N1CCN(c2nc3cc(F)ccc3o2)CC1 (single isomer, unassigned) [Compound 150b]	1000 to 10000 nM
O=C(CN1CCOCC1c1cc(C(F)(F)F)c(=O)[nH]n1)N1CCN(c2ncc(C(F)(F)F)cn2)CC1 (single isomer, unassigned) [Compound 88a]	100 to 1000 nM
O=C(CN1CCCC1c1cc(C(F)(F)F)c(=O)[nH]n1)C1CCN(c2ncc(C(F)(F)F)cn2)CC1 (single isomer, unassigned) [Compound 75b]	> 10000 nM
O=C(CN1CCCC1c1cc(C(F)(F)F)c(=O)[nH]n1)N1CCN(c2ncc(Cl)cc2Cl)CC1 (single isomer, unassigned) [Compound 125b]	1000 to 10000 nM
CC1(C)C[C@H](c2cc(C(F)(F)F)c(=O)[nH]n2)N(CC(=O)N2CCN(c3ncc(C(F)(F)F)cn3)CC2)C1 [Compound 94a]	10 to 100 nM
CNC(=O)c1cnc(N2CCN(C(=O)CN3CCCC3c3cc(C(F)(F)F)c(=O)[nH]n3)CC2)cn1 (single isomer, unassigned) [Compound 54a]	100 to 1000 nM

The remaining lines, values ahead:

IC50	Compound
100 to 1000 nM	O=C(CN1Cc2ccccc2C1c1cc(C(F)(F)F)c(=O)[nH]n1)N1CCN(c2ncc(C(F)(F)F)cn2)CC1 (single isomer, unassigned) [Compound 104a, 6-(2-(2-oxo-2-(4-(5-(trifluoromethyl)pyrimidin-2-yl)piperazin-1-yl)ethyl)isoindolin-1-yl)-4-(trifluoromethyl)pyridazin-3(2H)-one]
1000 to 10000 nM	O=C(CN1CCCC1c1cc(C(F)(F)F)c(=O)[nH]n1)N1CCN(c2nc3ccc(F)cn3n2)CC1 (single isomer, unassigned) [Compound 128b]
10 to 100 nM	O=C(CN1CCCC1c1cc(C(F)(F)F)c(=O)[nH]n1)N1CCN(c2ccc(Cl)cn2)CC1 (single isomer, unassigned) [Compound 41a]
≤ 10 nM	O=C(CN1CCCC1c1cc(C(F)(F)F)c(=O)[nH]n1)N1CCN(c2nc3ccccn3n2)CC1 (single isomer, unassigned) [Compound 117a]
100 to 1000 nM	CNC(=O)c1ccc(N2CCN(C(=O)CCN3CCC3c3cc(C(F)(F)F)c(=O)[nH]n3)CC2)cn1 (single isomer, unassigned) [Compound 56b]
100 to 1000 nM	O=C(CN1CCCC1c1cc(C(F)(F)F)c(=O)[nH]n1)NC1CCN(c2ncc(C(F)(F)F)cn2)CC1 (single isomer, unassigned) [Compound 33b]
1000 to 10000 nM	CN(c1ncc(C(F)(F)F)cn1)C1CCN(C(=O)CN2CCCC2c2cc(C(F)(F)F)c(=O)[nH]n2)CC1 (single isomer, unassigned) [Compound 107a]
1000 to 10000 nM	O=C(CN1CCCC1c1cc(C(F)(F)F)c(=O)[nH]n1)N1CCN(c2ccc(Cl)cn2)CC1 (single isomer, unassigned) [Compound 41b]
100 to 1000 nM	CNC(=O)c1ccc(N2CCN(C(=O)CN3CCC(c4cc(C(F)(F)F)c(=O)[nH]n4)CC3)CC2)cn1 [Compound 64]
100 to 1000 nM	O=C(CN1CCCC1c1c[nH]c(=O)c(C(F)(F)F)c1)N1CCN(c2ncc(C(F)(F)F)cn2)CC1 (single isomer, unassigned) [Compound 60b, 5-(1-(2-oxo-2-(4-(5-(trifluoromethyl)pyrimidin-2-yl)piperazin-1-yl)ethyl)pyrrolidin-2-yl)-3-(trifluoromethyl)pyridin-2(1H)-one]
100 to 1000 nM	COC1CC(c2cc(C(F)(F)F)c(=O)[nH]n2)N(CC(=O)N2CCN(c3ncc(C(F)(F)F)cn3)CC2)C1 (single isomer, unassigned) [Compound 138trans1, 6-(4-methoxy-1-(2-oxo-2-(4-(5-(trifluoromethyl)pyrimidin-2-yl)piperazin-1-yl)ethyl)pyrrolidin-2-yl)-4-(trifluoromethyl)pyridazin-3(2H)-one]
≤ 10 nM	O=C(CN1CCCC1c1cc(C(F)(F)F)c(=O)[nH]n1)N1CCN(c2nc3ccc(Cl)cc3o2)CC1 (single isomer, unassigned) [Compound 85a]
10 to 100 nM	N#Cc1cnc(N2CCN(C(=O)CN3CCCC3c3cc(C(F)(F)F)c(=O)[nH]n3)CC2)s1 (racemic) [Compound 44rac]
10 to 100 nM	N#Cc1ccc2oc(N3CCN(C(=O)CN4CCCC4c4cc(C(F)(F)F)c(=O)[nH]n4)CC3)nc2c1 (single isomer, unassigned) [Compound 100a]
1000 to 10000 nM	Cn1c(N2CCN(C(=O)CN3CCCC3c3cc(C(F)(F)F)c(=O)[nH]n3)CC2)nc2ccccc21 (single isomer, unassigned) [Compound 97b]
10 to 100 nM	O=C(CN1CCCC1c1c[nH]c(=O)c(C(F)(F)F)c1)N1CCN(c2ncc(Cl)cn2)CC1 (single isomer, unassigned) [Compound 74a]

Source: US20260193238A1, “PHARMACEUTICAL COMPOUNDS AS PARP7 AND/OR PARP1 INHIBITORS” (Duke Street Bio Limited, priority 2022, published 2026)
